Test results taken from the supplement of paper PMC10307832.

Key:
Test in all cases: relative viability (nuclei count vs DMSO), 5 days (fraction); higher = more cells survive
Imatinib + Foretinib = compound: Cc1ccc(NC(=O)c2ccc(CN3CCN(C)CC3)cc2)cc1Nc1nccc(-c2cccnc2)n1 [Imatinib] + COc1cc2c(Oc3ccc(NC(=O)C4(C(=O)Nc5ccc(F)cc5)CC4)cc3F)ccnc2cc1OCCCN1CCOCC1 [Foretinib] (partner 0.25 µM)
Outline: (§1)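 Lung cancer cell lines in 1536-well plates were dosed by pin tool the day after seeding, either with one drug alone or with a fixed anchor-drug dose plus five library-drug doses (not always all listed) in √10 steps. After 5 days, cells were fixed and their nuclei stained in one step (final 0.05% Triton X-100, 1% formaldehyde, 1 ug/ml Hoechst), then counted on 4× images. Relative viability is the nuclei count in treated wells divided by that in vehicle wells. Values are medians of duplicate plates.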

Imatinib + Bortezomib = compound: Cc1ccc(NC(=O)c2ccc(CN3CCN(C)CC3)cc2)cc1Nc1nccc(-c2cccnc2)n1 [Imatinib] + CC(C)C[C@H](NC(=O)[C@H](Cc1ccccc1)NC(=O)c1cnccn1)B(O)O [Bortezomib] (partner 0.002 µM)
Outline: as §1

Imatinib + Pemetrexed = compound: Cc1ccc(NC(=O)c2ccc(CN3CCN(C)CC3)cc2)cc1Nc1nccc(-c2cccnc2)n1 [Imatinib] + Nc1nc2[nH]cc(CCc3ccc(C(=O)N[C@@H](CCC(=O)O)C(=O)O)cc3)c2c(=O)[nH]1 [Pemetrexed] (partner 0.2 µM)
Outline: as §1

Imatinib + Vorinostat = compound: Cc1ccc(NC(=O)c2ccc(CN3CCN(C)CC3)cc2)cc1Nc1nccc(-c2cccnc2)n1 [Imatinib] + O=C(CCCCCCC(=O)Nc1ccccc1)NO [Vorinostat] (partner 1 µM)
Outline: as §1

Cell Line	relative viability (Imatinib + Foretinib; first compound 0.02 µM)	relative viability (Imatinib + Foretinib; first compound 0.06325 µM)	relative viability (Imatinib + Foretinib; first compound 0.2 µM)	relative viability (Imatinib + Foretinib; first compound 0.6325 µM)	relative viability (Imatinib + Foretinib; first compound 2 µM)	relative viability (Imatinib + Bortezomib; first compound 0.02 µM)	relative viability (Imatinib + Bortezomib; first compound 0.06325 µM)	relative viability (Imatinib + Bortezomib; first compound 0.2 µM)	relative viability (Imatinib + Bortezomib; first compound 0.6325 µM)	relative viability (Imatinib + Bortezomib; first compound 2 µM)	relative viability (Imatinib + Pemetrexed; first compound 0.02 µM)	relative viability (Imatinib + Pemetrexed; first compound 0.06325 µM)	relative viability (Imatinib + Pemetrexed; first compound 0.2 µM)	relative viability (Imatinib + Pemetrexed; first compound 0.6325 µM)	relative viability (Imatinib + Pemetrexed; first compound 2 µM)	relative viability (Imatinib + Vorinostat; first compound 0.02 µM)	relative viability (Imatinib + Vorinostat; first compound 0.2 µM)	relative viability (Imatinib + Vorinostat; first compound 0.6325 µM)	relative viability (Imatinib + Vorinostat; first compound 2 µM)	relative viability (Imatinib + Vorinostat; first compound 0.06325 µM)
NCI-H520	0.616	1.2	0.64	0.757	0.903	0.781	0.639	0.476	0.558	0.512	0.556	0.768	0.709	0.716	0.733	0.7	0.662	0.922	0.729	
NCI-H1993	0.817	0.886	0.783	0.705	0.756			0.954	1.11	1.02	0.581	0.44	0.501	0.616	0.582	0.608	0.737	0.688	0.743	0.581
H3255	0.791	0.405		0.914	0.709	0.796		0.729	0.699	0.7	0.536	0.499	0.554	0.565	0.573	0.873	0.765		0.588	
NCI-H838	1.15	1.17	1.07	1.02	1.02	1.04	0.823	0.947	1	0.886	0.249	0.26	0.251	0.253	0.247	0.77	0.74	0.708	0.76	0.786
LXF-289	1.01	0.914	1.14	0.848	0.95	1.06		1.13	0.974	0.955	0.91		0.88	0.893	0.923	0.782	0.798	0.736	0.783	
HCC-15	1.14		1.05	0.987	1.09	1.03	0.93	1.07	1.13	1.02	0.225	0.234	0.236	0.218	0.211	0.857	0.917	0.854	0.765	
NCI-H1437	1.37	1.26	1.33	1.22	1.24	0.697	0.528	0.541	0.432	0.547	0.318	0.354	0.374	0.33	0.279	0.934	0.883	0.998	0.786	0.81
201T	1.21		1.06	1.04	1.12	1.08		1.13		1.06	0.317	0.24	0.391	0.284	0.31	0.996		0.954	0.984	0.405
LOU-NH91	0.943	0.923	0.891	0.929	0.879	0.557	0.517	0.51	0.423	0.479	0.361	0.385	0.381	0.405	0.395	0.948	0.938	0.885	0.895	1.08
BEN	0.774		0.564	0.701	0.602	0.975	0.641	0.796	0.79	0.581	0.832	0.835	0.691	0.89	0.879	0.526	0.634	0.547	0.556	0.654
NCI-H647	1.51	1.27	1.57	1.25	1.06	1.11	1.11	1.73	1.02	0.872	0.18	0.183	0.192	0.202	0.158	0.459	0.593	0.549	0.619	0.888
HCC-78	0.654	0.577	0.534	0.44	0.56	0.33	0.34	0.599	0.358	0.479	0.865	0.955	0.949	0.916	0.882	0.417	0.383	0.447	0.492	0.344
NCI-H2085		0.941	1.02	1.01	0.972	1.05	0.902	1.08	1.13	1.04	0.837	0.892	0.917		0.834	0.755	0.772	0.743	0.768	0.683
NCI-H1651	0.902	0.619	0.87	0.79	0.77	1.03	0.83	0.964	0.955	0.893	0.617	0.339	0.586	0.58	0.555	0.603	0.631	0.547	0.548	0.49
NCI-H2126	1.36	0.958	1.31	1.02		1.12		1.19	1.05	1.12	0.667	0.524	0.704	0.634	0.725	0.702	0.789	0.724	0.818	0.582
NCI-H1734	1.06	1.2	0.939	0.776	0.87	1.3		1.02	0.938		0.402		0.425	0.377	0.388	0.92	0.832	0.856	0.717	
LU99A	0.772	0.879	0.894	0.857	0.772	1.34	1.19	1.08	1.23	1.03	0.161	0.206	0.157	0.232	0.313	0.564	0.471	0.559	0.564	0.455
